Assay results from BindingDB's records for patent US20250304537 (Repare Therapeutics, 2025).

Target: T1, Membrane-associated tyrosine- and threonine-specific cdc2-inhibitory kinase (Homo sapiens, UniProt Q99640)
T1 sequence (Q99640 whole entry): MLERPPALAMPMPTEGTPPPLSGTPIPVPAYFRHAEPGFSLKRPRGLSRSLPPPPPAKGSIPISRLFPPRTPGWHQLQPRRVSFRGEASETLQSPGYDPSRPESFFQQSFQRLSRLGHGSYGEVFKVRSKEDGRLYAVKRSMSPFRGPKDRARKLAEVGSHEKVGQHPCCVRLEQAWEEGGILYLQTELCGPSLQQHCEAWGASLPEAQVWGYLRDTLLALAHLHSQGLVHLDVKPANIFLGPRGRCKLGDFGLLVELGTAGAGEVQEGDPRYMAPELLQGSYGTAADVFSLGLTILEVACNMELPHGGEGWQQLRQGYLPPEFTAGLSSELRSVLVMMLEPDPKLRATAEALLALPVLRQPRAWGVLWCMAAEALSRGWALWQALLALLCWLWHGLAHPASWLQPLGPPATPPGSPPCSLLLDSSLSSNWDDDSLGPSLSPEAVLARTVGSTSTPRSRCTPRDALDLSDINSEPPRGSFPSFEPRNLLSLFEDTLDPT
Experiment: Enzymatic Assay
Description: Detection of Myt1 kinase activity utilized a recombinant human Myt1 kinase assay measuring the hydrolysis of ATP using a commercially available ADP-Glo Assay (ADP-Glo™ Kinase Assay from Promega, 10 000 assays, #V9102). Briefly, 5 μL recombinant human Myt1 (full length PKMYT1 recombinant human protein expressed in insect cells from Thermo Fisher #A33387; ˜80% purity) was prepared in reaction buffer (70 mM HEPES, 3 mM MgCl2, 3 mM MnCl2, 50 μg/ml PEG 20000, 3 μM Na-orthovanadate, 1.2 mM DTT) and added to 384 well white polystyrene, flat bottom well, non-treated, microplate (Corning #3572). After this, 5 μL of compounds (diluted in reaction buffer to 0.5% DMSO) was added to the microplate and the plate was spun briefly and incubated at 22° C. for 15 minutes. Ultra-Pure Adenosine Triphosphate (ATP) solution (ADP-Glo kit from Promega) was diluted in reaction buffer and 5 μL was added to the microplate, spun down briefly and incubated for 60 minutes at 30° C. The final Myt1 enzyme concentration was 18 nM and the final ATP concentration was 10 μM. After the 60-minute incubation, 15 μL of ADP-Glo reagent was added and the plate was spun briefly and sealed and incubated in the dark for 40 minutes at 22° C. Following this, 30 μL of kinase detection reagent was added per well and the plate was spun briefly, sealed and incubated for 45-60 minutes at 22° C. in the dark. Luminescence was read using the Envision (250 ms integration). The IC50 and the % max inhibition were calculated for each inhibitor compound tested.

Point of comparison: `Cc1ccc2[nH]ncc2c1-c1cc(-c2ccnc(OCC(F)(F)F)n2)nc(C(N)=O)c1N` [US20250304537, Compound 165], IC50 586 nM. Against it:
- Cc1ccc2[nH]ncc2c1-c1nc(-c2cccnc2O)nc(C(N)=O)c1N [US20250304537, Compound 598] — 22-fold lower, 27 nM
- Cc1ccc2[nH]ncc2c1-c1nc(-c2cccc(N3CCN(C)CC3)c2)nc(C(N)=O)c1N [US20250304537, Compound 132] — 16-fold lower, 37 nM
- Cc1ccc2[nH]ncc2c1-c1cc(-c2ccnc(OCc3ccco3)n2)nc(C(N)=O)c1N [US20250304537, Compound 213] — 84-fold lower, 7 nM
- Cc1ccc2[nH]ncc2c1-c1cc(-c2ccnc(OCc3nccn3C)n2)nc(C(N)=O)c1N [US20250304537, Compound 301] — 150-fold lower, 4 nM
- Cc1ccc2[nH]ncc2c1-c1nc(-c2ccc(C#N)cc2)nc(C(N)=O)c1N [US20250304537, Compound 133] — 15-fold lower, 39 nM
- Cc1ccc2[nH]ncc2c1-c1nc(-c2ccc3[nH]ncc3c2)nc(C(N)=O)c1N [US20250304537, Compound 130] — 8.9-fold lower, 66 nM
- CCc1ccc2[nH]ncc2c1-c1nc(-c2cccnc2)nc(C(N)=O)c1N [US20250304537, Compound 222] — higher, > 2000 nM
- Cc1ccc2[nH]ncc2c1-c1cc(-c2cccc(-c3ccccn3)n2)nc(C(N)=O)c1N [US20250304537, Compound 236] — 13-fold lower, 46 nM
- Cc1cc(-c2nc(C(N)=O)c(N)c(-c3c(C)ccc4[nH]ncc34)n2)ccn1 [US20250304537, Compound 136] — 23-fold lower, 25 nM
- Cc1ccc(O)cc1-c1nc(C2CCOCC2)nc(C(N)=O)c1N [US20250304537, Compound 44] — 5.4-fold higher, 3180 nM
- Cc1ccc2[nH]ncc2c1-c1cc(-c2ccnc(OCC3(C#N)CC3)n2)nc(C(N)=O)c1N [US20250304537, Compound 324] — 59-fold lower, 10 nM
- NC(=O)c1nc(-c2ccnnc2)cc(-c2cccc3[nH]ncc23)c1N [US20250304537, Compound 69] — 4.5-fold lower, 131 nM
- Cc1ccc2[nH]ncc2c1-c1nc(-c2ccc(N3CCN(C)CC3)cc2)nc(C(N)=O)c1N [US20250304537, Compound 134] — 4.1-fold lower, 142 nM
- COc1cc(-c2nc(C(N)=O)c(N)c(-c3c(C)ccc4[nH]ncc34)n2)ccn1 [US20250304537, Compound 135] — 27-fold lower, 22 nM
- Cc1ccc2[nH]ncc2c1-c1cc(-c2ccnc(N[C@H]3CCOC[C@@H]3O)n2)nc(C(N)=O)c1N [US20250304537, Compound 368] — 39-fold lower, 15 nM
- CC(=O)N1CCN(c2nccc(-c3cc(-c4c(C)ccc5[nH]ncc45)c(N)c(C(N)=O)n3)n2)CC1 [US20250304537, Compound 215] — 84-fold lower, 7 nM
- Cc1ccc(O)c(C)c1-c1nc(-c2ccnnc2)cc(C(N)=O)c1N [US20250304537, Compound 77] — 22-fold lower, 27 nM
- Cc1ccc2[nH]ncc2c1-c1nc(-c2ccnnc2)cc(C(N)=O)c1N [US20250304537, Compound 120] — 1.8-fold lower, 329 nM
